The nature of data set [1]: stability (decomposition) of the substrate in aqueous solution. The data set is classed as physicochemical.
A short description of data set [2]: water solubility of the substrate (aqueous solution prepared).
For data set [3] the following is noted: prior-art substrate; needs solubilizing auxiliary agent such as cyclodextrin or crown ether; cited from earlier work.

Converted amounts (≈) assume the structure as drawn.

A word on the solubility: it is the concentration that dissolves in the medium under given conditions. A lower solubility goes with little dissolved substance.

Take `CC(=O)N[C@H]1[C@H](Oc2ccc([N+](=O)[O-])c([N+](=O)[O-])c2)O[C@H](CO)[C@@H](O)[C@@H]1O` [3,4-DNG, 3,4-dinitrophenyl-N-acetyl-β-D-glucosaminide]: the degraded at 1 h in data set [1] (enzyme reaction conditions (pH 5, 37°C) for one hour, read-out: decomposition ratio) turned out to be 1.5%. Also, the “stability of aqueous solution” value in data set [1] (under ice-cooling) is “stable”. Besides, in data set [1] (water, aqueous solution left to stand at room temperature overnight), the degraded was approximately 1%. In data set [2], the solubility came to 12 mM (≈ 4650 µg/mL).

For `CC(=O)N[C@H]1[C@H](Oc2ccc([N+](=O)[O-])cc2Cl)O[C@H](CO)[C@@H](O)[C@@H]1O` [2-chloro-4-nitrophenyl-N-acetyl-β-D-glucosaminide], the “solubility in water (in words)” value in data set [3] was “difficult to dissolve in water”.

The values above are taken from EP0411159B1, “METHOD FOR DETERMINING ENZYMATIC ACTIVITY” (IATRON LABORATORIES, INC., priority 1989, dated 1990).
